Legend:
[1] = target: Carbonic anhydrase 2 (Homo sapiens) (UniProt P00918); test: Activation of […] human carbonic anhydrase-2 incubated for 15 mins prior to testing by stopped-flow CO2 hydrase assay
[2] = target: Carbonic anhydrase 1 (Homo sapiens) (UniProt P00915); test: Activation of […] human carbonic anhydrase-1 incubated for 15 mins prior to testing by stopped-flow CO2 hydrase assay
[3] = target: Carbonic anhydrase 7 (Homo sapiens) (UniProt P43166); test: Activation of […] human carbonic anhydrase-7 incubated for 15 mins prior to testing by stopped-flow CO2 hydrase assay
[4] = target: Carbonic anhydrase 12 (Homo sapiens) (UniProt O43570); test: Activation of transmembrane human carbonic anhydrase-12 incubated for 15 mins prior to testing by stopped-flow CO2 hydrase assay
[5] = target: Carbonic anhydrase 14 (Homo sapiens) (UniProt Q9ULX7); test: Activation of transmembrane human carbonic anhydrase-14 incubated for 15 mins prior to testing by stopped-flow CO2 hydrase assay
Carbonic anhydrase 14 (Homo sapiens), sequence (Q9ULX7 whole entry): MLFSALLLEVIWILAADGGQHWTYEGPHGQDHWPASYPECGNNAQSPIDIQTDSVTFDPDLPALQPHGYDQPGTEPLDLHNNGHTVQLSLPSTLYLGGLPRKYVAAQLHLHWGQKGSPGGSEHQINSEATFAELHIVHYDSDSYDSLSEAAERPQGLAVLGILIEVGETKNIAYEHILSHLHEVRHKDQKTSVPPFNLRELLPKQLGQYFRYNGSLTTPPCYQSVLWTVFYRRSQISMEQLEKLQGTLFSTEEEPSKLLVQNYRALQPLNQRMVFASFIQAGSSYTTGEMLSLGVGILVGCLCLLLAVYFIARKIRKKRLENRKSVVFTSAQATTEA

Carbonic anhydrase 1 (Homo sapiens), sequence (P00915 2-261 limits assumed): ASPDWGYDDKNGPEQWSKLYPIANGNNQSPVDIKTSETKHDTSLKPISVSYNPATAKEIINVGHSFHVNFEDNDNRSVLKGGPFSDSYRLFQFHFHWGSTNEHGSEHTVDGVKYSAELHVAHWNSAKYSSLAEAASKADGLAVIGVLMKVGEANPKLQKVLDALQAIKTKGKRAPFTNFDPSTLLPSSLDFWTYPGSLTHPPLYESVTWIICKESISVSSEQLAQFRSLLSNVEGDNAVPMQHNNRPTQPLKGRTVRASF
Carbonic anhydrase 7 (Homo sapiens), sequence (P43166 whole entry): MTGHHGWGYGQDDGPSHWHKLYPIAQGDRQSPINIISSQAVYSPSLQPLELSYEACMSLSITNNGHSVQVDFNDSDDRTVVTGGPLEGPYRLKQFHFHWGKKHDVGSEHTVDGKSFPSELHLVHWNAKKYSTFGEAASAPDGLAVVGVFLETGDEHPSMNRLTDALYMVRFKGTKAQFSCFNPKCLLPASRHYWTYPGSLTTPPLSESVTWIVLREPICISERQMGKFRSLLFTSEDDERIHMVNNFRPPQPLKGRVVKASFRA
Carbonic anhydrase 12 (Homo sapiens), sequence (O43570 whole entry): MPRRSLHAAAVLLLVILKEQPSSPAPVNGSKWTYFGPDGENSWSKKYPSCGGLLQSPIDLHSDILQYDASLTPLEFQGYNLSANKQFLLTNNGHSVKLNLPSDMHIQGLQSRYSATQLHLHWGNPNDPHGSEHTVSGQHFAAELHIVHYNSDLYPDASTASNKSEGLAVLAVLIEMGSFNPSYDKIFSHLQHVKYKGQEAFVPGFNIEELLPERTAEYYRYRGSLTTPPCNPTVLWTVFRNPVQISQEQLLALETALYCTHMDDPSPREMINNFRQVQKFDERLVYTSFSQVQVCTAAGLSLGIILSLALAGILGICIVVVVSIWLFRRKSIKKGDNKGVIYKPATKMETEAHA

Row | SMILES | KA [1] [µM] | KA [2] [µM] | KA [3] [µM] | KA [4] [µM] | KA [5] [µM]
1 | NCCc1nc(Cl)[nH]c1Cl | 0.032 | 0.018 | 0.041 | 5.7 | 38.9
2 | NCCc1nc[nH]c1I | 0.065 | 0.0009 | 7.6 | 0.9 | 7.1
3 | COC(=O)[C@@H](N)Cc1nc[nH]c1Cl | 13.1 | 21.3 | 36.1 | 0.078 | 6.4
4 | CC(C)(C)OC(=O)NCCc1nc[nH]c1Br | 44.5 | 7.1 | 10.4 | 52.8 | 34.7
5 | COC(=O)[C@H](Cc1nc(Cl)[nH]c1Cl)NC(=O)CCNC(=O)OC(C)(C)C | 18.6 | 10.1 | 0.12 | 9.7 | 33.5
6 | COC(=O)[C@H](Cc1nc[nH]c1Cl)NC(=O)OC(C)(C)C | 29 | 10.1 | 47.6 | 42.5 | 24.1
7 | CC(C)(C)OC(=O)NCCc1nc[nH]c1I | 13.6 | 29.3 | 21.5 | 44.3 | 30.9
8 | COC(=O)[C@H](Cc1nc(Br)[nH]c1Br)NC(=O)CCN | 4.1 | 30.7 | 0.0081 | 1.84 | 18.9
9 | NCCc1nc(Br)[nH]c1Br | 0.008 | 0.012 | 0.74 | 25.2 | 13.1
10 | COC(=O)[C@H](Cc1nc[nH]c1Br)NC(=O)CCNC(=O)OC(C)(C)C | 0.97 | 2.6 | 5.2 | 24.9 | 36.5
11 | COC(=O)[C@H](Cc1nc(Cl)[nH]c1Cl)NC(=O)CCN | 10.9 | 22.5 | 0.01 | 0.072 | 10.3
12 | NCCc1nc[nH]c1Br | 0.096 | 0.015 | 5.2 | 3.2 | 16.2
13 | COC(=O)[C@H](Cc1nc[nH]c1I)NC(=O)CCNC(=O)OC(C)(C)C | 5.2 | 4.3 | 0.81 | 28.7 | 24.6
14 | NCCc1nc[nH]c1Cl | 0.115 | 0.021 | 15.3 | 12.1 | 38.7
15 | COC(=O)[C@@H](N)Cc1c[nH]cn1 | 10.4 | 0.02 | 0.88 | 0.91 | 0.93
16 | CC(C)(C)OC(=O)NCCc1nc(Cl)[nH]c1Cl | 24.8 | 16.5 | 13.1 | 40.2 | 28.1
17 | COC(=O)[C@H](Cc1nc(I)[nH]c1I)NC(=O)CCNC(=O)OC(C)(C)C | 8.2 | 18.7 | 0.74 | 40.5 | 52.7
18 | COC(=O)[C@@H](N)Cc1nc(Br)[nH]c1Br | 1.08 | 1.4 | 9.7 | 0.83 | 22.1
19 | COC(=O)[C@@H](N)Cc1nc[nH]c1I | 0.32 | 0.0012 | 6.2 | 14.3 | 7.8

Row | SMILES | KA [1] [µM] | KA [2] [µM] | KA [3] [µM] | KA [4] [µM] | KA [5] [µM]
20 | COC(=O)[C@H](Cc1nc[nH]c1Br)NC(=O)OC(C)(C)C | 26.5 | 7.3 | 40.2 | 10.7 | 0.92
21 | COC(=O)[C@H](Cc1nc(Cl)[nH]c1Cl)NC(=O)OC(C)(C)C | 40.3 | 2.45 | 50.7 | 25.3 | 1.4
22 | COC(=O)[C@H](Cc1nc[nH]c1Cl)NC(=O)CCN | 30.9 | 1.25 | 0.013 | 21.5 | 15.3
23 | COC(=O)[C@H](Cc1nc(I)[nH]c1I)NC(=O)CCN | 2.9 | 21.4 | 3.5 | 10.5 | 20.1
24 | COC(=O)[C@H](Cc1c[nH]cn1)NC(=O)CCN | 32 | 10.9 | 0.84 | 0.96 | 0.71
25 | COC(=O)[C@H](Cc1nc[nH]c1I)NC(=O)OC(C)(C)C | 0.012 | 0.0009 | 38.5 | 6.1 | 13.5
26 | CC(C)(C)OC(=O)NCCc1nc[nH]c1Cl | 50.2 | 5.4 | 24.9 | 18.8 | 45.2
27 | COC(=O)[C@H](Cc1nc[nH]c1Cl)NC(=O)CCNC(=O)OC(C)(C)C | 48.5 | 34.3 | 12.1 | 2.5 | 7.9
28 | COC(=O)[C@H](Cc1nc(I)[nH]c1I)NC(=O)OC(C)(C)C | 0.013 | 0.0015 | 10.3 | 64.7 | 34.9
29 | CC(C)(C)OC(=O)NCCc1nc(Br)[nH]c1Br | 28.5 | 13.3 | 28.3 | 37.4 | 29.5
30 | NCCc1nc(I)[nH]c1I | 0.001 | 0.0007 | 1.39 | 34.6 | 15.5
31 | COC(=O)[C@H](Cc1nc[nH]c1Br)NC(=O)CCN | 1.78 | 2.1 | 1.02 | 30.7 | 28.4
32 | CC(C)(C)OC(=O)NCCc1nc(I)[nH]c1I | 36.7 | 12.1 | 45.6 | 35 | 37.1
33 | COC(=O)[C@@H](N)Cc1nc(Cl)[nH]c1Cl | 10.5 | 31.2 | 24.9 | 27.1 | 20.6
34 | COC(=O)[C@@H](N)Cc1nc(I)[nH]c1I | 1.12 | 0.96 | 3.6 | 10.9 | 24.3
35 | COC(=O)[C@@H](N)Cc1nc[nH]c1Br | 10.4 | 13.6 | 12.3 | 1.01 | 5.2
36 | COC(=O)[C@H](Cc1nc(Br)[nH]c1Br)NC(=O)CCNC(=O)OC(C)(C)C | 34.8 | 21.5 | 4 | 31.6 | 40.8
37 | COC(=O)[C@H](Cc1nc[nH]c1I)NC(=O)CCN | 1.6 | 7.6 | 1.06 | 40.1 | 39.2
38 | COC(=O)[C@H](Cc1nc(Br)[nH]c1Br)NC(=O)OC(C)(C)C | 0.96 | 0.032 | 13.1 | 1.62 | 3.51
